Consider one compound from US8853214B2, “Pyridazine compounds for controlling invertebrate pests” (BASF SE, priority 2010, dated 2014).

As a reminder, the mortality is the percentage killed.

For this assay, the system named is Aphis craccivora. As to the kind of experiment: Cowpea aphid (Aphis craccivora) spray test on potted cowpea plants. It counts as in vivo. The note with it: in comparison with untreated controls, population reduction assessed after 24, 72 and 120 hours. On the procedure:
II.1 Cowpea Aphid (Aphis craccivora)
The active compounds were formulated in 50:50 (vol:vol) acetone:water. The test solution was prepared at the day of use.
Potted cowpea plants colonized with 100-150 aphids of various stages were sprayed after the pest population had been recorded. Population reduction was assessed after 24, 72, and 120 hours.

A value given as a limit tells only on which side of the number the result lay.

Consider `O=C(Nc1ccnnc1)c1ccco1` [II.31, Furan-2-carboxylic acid pyridazin-4-ylamide], for which the mortality at 500 ppm was at least 75%.
